From US12291533B2, “Substituted fused pyrimidine compounds and uses thereof” (Northwestern University, priority 2017, dated 2025)

Target: T1, glucocerebrosidase (Homo sapiens, UniProt P04062)
T1 sequence (P04062 40-536): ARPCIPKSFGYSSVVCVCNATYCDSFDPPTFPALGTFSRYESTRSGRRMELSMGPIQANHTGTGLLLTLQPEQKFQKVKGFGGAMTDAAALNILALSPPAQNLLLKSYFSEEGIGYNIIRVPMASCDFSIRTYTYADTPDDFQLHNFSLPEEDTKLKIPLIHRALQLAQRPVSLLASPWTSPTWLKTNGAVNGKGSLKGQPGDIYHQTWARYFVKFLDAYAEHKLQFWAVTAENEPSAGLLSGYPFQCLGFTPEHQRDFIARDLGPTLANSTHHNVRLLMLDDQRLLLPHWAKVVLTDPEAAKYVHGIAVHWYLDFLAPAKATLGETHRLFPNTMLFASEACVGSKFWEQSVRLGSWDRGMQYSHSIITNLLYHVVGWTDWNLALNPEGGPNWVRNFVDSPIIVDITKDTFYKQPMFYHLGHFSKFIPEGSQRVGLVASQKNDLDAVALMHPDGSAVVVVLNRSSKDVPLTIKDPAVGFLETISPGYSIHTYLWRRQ
Assay: Glucocerebrosidase activity assay with blue substrate (4MU-Glc)
Type: biochemical
Conditions: Table 1, 7.5 nM enzyme, 1.5 mM 4MU-Glc, 30 min at 37° C.; for AC50: titration 24 nM to 50 μM
Procedure: Example 2—Glucocerebrosidase Activity Assay with Blue Substrate
The compounds in DMSO solution 0.5 μL/well were transferred to a black 96-well plate (the final titration was 24 nM to 50 μM, 12 concentrations, 2× dilution). 33.5 μL enzyme solution (7.5 nM final concentration) was transferred to the wells. After 5 min of incubation at room temperature, the enzyme reaction was initiated by the addition of 33 μL/well blue substrate. Final concentration of the blue substrate (4MU-Glc) was 1.5 mM. The blue substrate reaction was terminated by the addition of 33 μL/well stop solution (1 M NaOH and 1 M glycine mixture, pH 10) after 30 min of incubation at 37° C. The fluorescence was then measured in the Biotek Synergy H1 multi-mode plate reader with Ex=365 nm and Em=440 nm.
Additional compounds were synthesized and tested for glucocerebrosidase modulatory activity as described in Example 1 and Example 2.

SMILES	Emax [%]	AC50 [µM]
CN(C[C@H]1COc2ccccc2O1)c1nc(-c2cccnc2)nc2ccccc12 [Compound 9, (S)—N-((2,3-dihydrobenzo[b][1,4]dioxin-2-yl)methyl)-N-methyl-2-(pyridin-3-yl)quinazolin-4-amine]	645	1.49
CN(C[C@H]1COc2ccccc2O1)c1nc(-c2cccnc2)nc2c1cnn2C [Compound 10]	573	1.38
CN(C[C@H]1COc2ccccc2O1)c1nc(-c2cccnc2)nc2ncccc12 [Compound 11]	–	3.83
CN(C[C@@H]1COc2ccccc2O1)c1nc(-c2cccnc2)nc2ccccc12 [Compound 12]	220	2.67
CN(CCOc1ccccc1)c1nc(-c2cccnc2)nc2ccccc12 [Compound 13]	750	3.55
CCN(CCOc1ccccc1)c1nc(-c2cccnc2)nc2ccccc12 [Compound 14]	430	5.01
CCCN(CCOc1ccccc1)c1nc(-c2cccnc2)nc2ccccc12 [Compound 15]	130	3.12
CN(CCOc1ccccc1)c1nc(-c2ccc(Cl)nc2)nc2ccccc12 [Compound 17]	190	1.58
O=C(O)CCCCCCCN(CCOc1ccccc1)c1nc(-c2cccnc2)nc2ccccc12 [Compound 19]	150	1.78
O=C(CCCCCCCN(CCOc1ccccc1)c1nc(-c2cccnc2)nc2ccccc12)ON1C(=O)CCC1=O [Compound 20]	500	1.26
CN(CCOc1ccc(CCc2ccccc2)cc1)c1nc(-c2cccnc2)nc2ccccc12 [Compound 21]	180	15.8
c1ccc(OC2CCN(c3nc(-c4cccnc4)nc4ccccc34)C2)cc1 (stereo not shown) [Compound 22]	300	1.58
Cc1cccc(OCCN(C)c2nc(-c3cccnc3)nc3ccccc23)c1 [Compound 23]	500	3.55
c1ccc(OCCOc2nc(-c3cccnc3)nc3ccccc23)cc1 [Compound 24]	140	3.16
c1ccc(O[C@H]2CCCN(c3nc(-c4cccnc4)nc4ccccc34)C2)cc1 [Compound 25]	220	3.98
c1ccc(O[C@@H]2CCCN(c3nc(-c4cccnc4)nc4ccccc34)C2)cc1 [Compound 26]	225	1.78
Cc1cc(C)cc(OCCN(C)c2nc(-c3cccnc3)nc3ccccc23)c1 [Compound 27]	225	3.98
Cc1ccccc1OCCN(C)c1nc(-c2cccnc2)nc2ccccc12 [Compound 28]	350	3.16
CN(CCOC(C)(C)C)c1nc(-c2cccnc2)nc2ccccc12 [Compound 29]	180	39.8
CN(CCc1c[nH]c2ccccc12)c1nc(-c2cccnc2)nc2ccccc12 [Compound 30]	250	5.01
CN(CCOc1ccccc1)c1nc(-c2cncc(Cl)c2)nc2ccccc12 [Compound 32]	250	1.21
C#Cc1ccc(OCCN(C)c2nc(-c3cccnc3)nc3ccccc23)cc1 [Compound 33]	190	2.82
CN(CCOc1ccccc1)c1nc(-c2cccnc2F)nc2ccccc12 [Compound 34]	160	1.12
CN(CCOc1ccccc1)c1nc(-c2cncc(F)c2)nc2ccccc12 [Compound 35]	180	0.51
CN(CCOc1ccccc1)c1nc(-c2ccc(F)nc2)nc2ccccc12 [Compound 36]	220	1.58
CN(CCOc1ccccc1)c1nc(-c2cncc(C(F)(F)F)c2)nc2ccccc12 [Compound 37]	250	1.65
CN(CCOc1ccccc1)c1nc(-c2cccnc2)nc2c(F)cccc12 [Compound 38]	700	2.82

SMILES	Emax [%]	AC50 [µM]
CN(CCOc1ccccc1)c1nc(-c2cccnc2)nc2cc(F)ccc12 [Compound 39]	450	2.82
CN(CCOc1ccccc1)c1nc(-c2cccnc2)nc2ccc(F)cc12 [Compound 40]	450	1.58
CN(CCOc1ccccc1)c1nc(-c2cccnc2)nc2cccc(F)c12 [Compound 41]	180	13.5
CN(CCN(C)c1nc(-c2cccnc2)nc2ccccc12)c1ccccc1 [Compound 42]	250	6.54
CN(CCOc1ccccc1)c1nc(-c2cccnc2)nc2c(C(F)(F)F)cccc12 [Compound 43]	400	1.81
CN(CCOc1ccccc1)c1nc(-c2cccnc2)nc2cc(C(F)(F)F)ccc12 [Compound 44]	180	4.12
CN(CCOc1ccccc1)c1nc(-c2cccnc2)nc2ccc(C(F)(F)F)cc12 [Compound 45]	120	5
Cc1noc(C)c1-c1nc(N(C)CCOc2ccccc2)c2ccccc2n1 [Compound 47]	175	2.21
CN(CCOc1ccccc1)c1nc(-c2coc3ccccc23)nc2ccccc12 [Compound 49]	120	2.42
CN(CCOc1ccccc1)c1nc(-c2ccc(O)nc2)nc2ccccc12 [Compound 51]	200	8.17
CN(CCOc1ccc(CN)cc1)c1nc(-c2cccnc2)nc2ccccc12 [Compound 53]	300	4.1
CN(CCOc1ccccc1)c1nc(-c2ccc(N)nc2)nc2ccccc12 [Compound 54]	170	3.1
Cc1sc2nc(-c3cccnc3)nc(N(C)CCOc3ccccc3)c2c1C [Compound 55]	458	39.8
CN(CCOc1ccccc1)c1nc(-c2cccnc2)nc2c1CCC2 [Compound 56]	295	3.3
CN(CCOc1ccccc1)c1nc(-c2cccnc2)nc2c1CCCC2 [Compound 58]	130	1.41
CN(CCOc1ccccc1)c1nc(-c2cccnc2)nc2ccsc12 [Compound 59]	333	5.01
CN(CCOc1ccccc1)c1nc(-c2cccnc2)nc2sccc12 [Compound 60]	624	3.16
COC(=O)Cc1ccc(CNc2nc(-c3cccnc3)nc3ccccc23)cc1 [Compound 61]	127	2.51
CN(CCOc1ccccc1)c1nc(-c2cccnc2)nc2ncccc12 [Compound 62]	–	7.08
CN(CCOc1ccccc1)c1nc(-c2cccnc2)nc2[nH]ccc12 [Compound 63]	461	3.98
Cc1csc2c(N(C)CCOc3ccccc3)nc(-c3cccnc3)nc12 [Compound 64]	222	2.51
CN(CCOc1ccccc1)c1cc(-c2ccccc2)nc(-c2cccnc2)n1 [Compound 65]	144	1
CN(CCOc1ccccc1)c1nc(Nc2ccccc2)nc2ccccc12 [Compound 66]	141	7.08
CN(CCOc1ccccc1)c1nc(-c2cccnc2)nc2ccoc12 [Compound 67]	787	10
CN(CCOc1ccccc1)c1nc(-c2cccnc2)nc2c1SCC2 [Compound 68]	327	12.6
CN(CCOc1ccccc1)c1nc(-c2cncc(F)c2)nc2ncccc12 [Compound 69]	–	7.1
